Results taken from publication PMC12208134, “Structure-activity relationships of 1,5-dihydro-2H-benzo[b][1,4]diazepine-2,4(3H)-diones as inhibitors of Trypanosoma cruzi” (RSC medicinal chemistry, 2025).
In brackets after ≈: the same amount, converted by molar mass. Several values for one entry are separate records, joined by “and”; a condition that tells them apart may be missing. Equal entries are not always repeated. Where two headings read alike, the source gives them in different places.

Tests used:
[1] = Mouse liver microsomal intrinsic clearance; assay type: in vitro ADME
[2] = Human liver microsomal intrinsic clearance; assay type: in vitro ADME
[3] = Kinetic aqueous solubility by CAD; assay type: physicochemical
[4] = test system: intracellular T. cruzi amastigotes; assay: T. cruzi intracellular potency assay (high content imaging); assay type: cell-based, Trypanosoma cruzi; design: key to Max Effect (T. cruzi): % inhibition; 0% = DMSO control, 100% = 16 μM nifurtimox control; settings: for Hill slope (T. cruzi) / Max Effect (T. cruzi) / pEC50 (T. cruzi) / Emax / EC50: individual replicate; for Emax / EC50 / IC50: Trypanosoma cruzi; for Emax: read-out: Max Effect (T. cruzi); for EC50: read-out: pEC50 (T. cruzi) (converted); for IC50: read-out: T. cruzi pIC50 (converted)
Method: (§1) T. cruzi intracellular potency and rate-of-kill assay (high content imaging) ^1
(§2) Silvio X10/7 T. cruzi trypomastigotes were incubated at 37°C 5% CO2 with 1.6×10^7 Vero cells overnight at MOI10 in MEM media supplemented with 10% foetal calf serum (FCS). Extracellular parasites were removed by aspirating cell culture supernatant, and washing Vero monolayer with 10 ml serum-free MEM three times. Vero cells were then harvested by trypsinization and dispensed at 2×10^3 per well (50 μl in MEM/ 1% FCS) into 384 well plates pre-stamped with compounds in DMSO using automated washer/ dispenser EL406 and liquid handling software (Biotek). Plates were then incubated at 37°C in 5% CO2 for 96 h. For rate-of-kill determination, plates were incubated for 24h, 48h, 72h and 96h.
(§3) Plates were subsequently fixed with 4% formaldehyde for 20 min, permeabilised and stained with 5 μgml^-1 Hoechst 33342/ 0.1% Triton/ PBS Thimerosal 20 min. Automated imaging was performed by an Operetta high content imaging system using 20x objective (PerkinElmer). Images were analysed with an algorithm generated in Columbus (PerkinElmer) to segment Vero cell nuclei, Vero cell cytoplasm and parasite nuclei/ kinetoplasts, reporting number of amastigotes per Vero cell, percent infected Vero cells and total number of Vero cells. Compound potencies against T. cruzi parasites were calculated in IDBS Activitybase using percent infected Vero cells and Vero toxicity curves generated using number of host cells. All data was normalised to percent inhibition based on the raw data values for the 100% effect control (16 μM nifurtimox) and the 0% effect control (DMSO) on each plate at each time point. Curve fitting was carried out using a four-parameter equation as previously described. ^2 For rate-of-kill experiments the percent infected cells at each compound concentration was plotted against time.

[5] = test system: host Vero cell; assay: Vero host cell toxicity in the intracellular T. cruzi assay; assay type: cell-based; design: key to Max Effect (Vero): % inhibition; 0% = DMSO control, 100% = 16 μM nifurtimox control; settings: for EC50 / IC50: Chlorocebus sabaeus; for EC50: Vero; for IC50: read-out: Vero pIC50 (converted)
Method: as §1, §2, §3

[6] = ChromLogD pH7.4 (chromatographic hydrophobicity index), PFI, LLE; settings: for PFI: ChromLogDpH7.4 + no. aromatic rings
Source text: [23] Alongside PFI, LLE (ligand lipophilic efficiency, T. cruzi pIC50 - ChromLogDpH7.4) was also monitored to identify changes where the impact on potency was not driven by increasing lipophilicity.

[7] = intracellular amastigotes in Vero cells, 96 h, mean of N ≥ 3
[8] = kinetic from dmso stock, kinetic, CAD, read-out: Aqueous solubility

| Compound | MLM CLi ([1]; mouse liver microsomes) [mL/min/g] | HLM CLi ([2]; human liver microsomes) [mL/min/g] | Hill slope (T. cruzi) [4] | Max Effect (T. cruzi) [4] | pEC50 (T. cruzi) [4] | Max Effect (Vero) ([5]; individual replicate) | pEC50 (Vero) ([5]; individual replicate) | PFI [6] | Emax [4] [%] | EC50 [4] [µM] | EC50 ([5]; individual replicate) [µM] | IC50 [4, 7] [µM] | IC50 ([5]; host Vero cell) [µM] | chromatographic logD ([6]; pH 7.4) | solubility [3, 8] [µM] | further results |
| --- | --- | --- | --- | --- | --- | --- | --- | --- | --- | --- | --- | --- | --- | --- | --- | --- |
| 3-amino-6-fluoro-1-(4-methoxybenzyl)-5-(4-methoxyphenyl)-1,5-dihydro-2H-benzo[b][1,4]diazepine-2,4(3H)-dione [Compound 22] | 2.2 | <0.4 | 11.8 and 10.3 and 3.4 and 21.3 | 77 and 98 and 83 and 82 | 7.2 | 3.52 and 24 and 2 and 12 | < 4.3 | 7.2 | – | – | – | – | – | – | – | solubility ([3]; kinetic, CAD, read-out: Aqueous solubility): 168 µM; T. cruzi pIC50 [4, 7]: 7.2 ± 0.0; Vero pIC50 ([5]; host Vero cell): <4.3; Chrom LogDpH7.4 ([6]; pH 7.4): 4.2 |
| CC(C)N(C(=O)CN1C(=O)C(N)C(=O)N(c2ccccc2)c2ccccc21)c1ccccc1 (single isomer, unassigned) [14-Ent 1, 2-(3-amino-2,4-dioxo-5-phenyl-2,3,4,5-tetrahydro-1H-benzo[b][1,4]diazepin-1-yl)-N-isopropyl-N-phenylacetamide] | – | – | 3.1 and 5.7 | 88 | 6.4 | 27 and 35 | < 4.3 | – | 94 | 0.316 | > 50.1 | – | – | – | – | – |
| CC(C)N(C(=O)CN1C(=O)C(N)C(=O)N(c2ccccc2)c2ccccc21)c1ccccc1 (single isomer, unassigned) [14-Ent 2, 2-(3-amino-2,4-dioxo-5-phenyl-2,3,4,5-tetrahydro-1H-benzo[b][1,4]diazepin-1-yl)-N-isopropyl-N-phenylacetamide] | – | – | 85.9 and 4.0 | 82 | 6.7 and 6.6 | 5.45 and 20 | < 4.3 | – | – | – | – | – | – | – | – | – |
| O=C(Nc1ccc(F)cc1)NC1C(=O)Nc2ccccc2N(c2ccccc2)C1=O (stereo not drawn) [Compound 3, 1-(2,4-dioxo-1-phenyl-2,3,4,5-tetrahydro-1H-benzo[b][1,4]diazepin-3-yl)-3-(4-fluorophenyl)urea] | – | – | 2.0 and 0.8 and 2.1 and 1.3 | 92 and 95 and 83 | 5.1 and 4.8 | -12 and 14 and 22 and 36 | – | 7.4 | 90 | 12.6 | > 50.1 | 10 | > 50.1 | 4.4 | – | MLM CLi ([1]; mouse, microsomes): 0.6 mL/min/g; HLM CLi ([2]; human, microsomes): <0.4 mL/min/g; solubility ([3]; kinetic from dmso stock): 26 µM (≈ 10.5 µg/mL) |
| COc1ccccc1N1C(=O)C(NC(=O)Nc2ccc(C)cc2)C(=O)Nc2ccccc21 (stereo not drawn) [Compound 6, 1-(1-(2-methoxyphenyl)-2,4-dioxo-2,3,4,5-tetrahydro-1H-benzo[b][1,4]diazepin-3-yl)-3-(p-tolyl)urea] | – | – | 2.9 and 3.1 and 3.8 and 11.3 | 81 and 90 and 77 | 4.6 and 4.3 | 38 and 21 and 11 and 12 | – | 7.7 | 79 | 31.6 | > 50.1 | 31.6 | > 50.1 | 4.7 | – | MLM CLi ([1]; mouse, microsomes): 2.1 mL/min/g; HLM CLi ([2]; human, microsomes): <0.4 mL/min/g; solubility ([3]; kinetic from dmso stock): 129 µM (≈ 55.5 µg/mL) |
| Cc1ccc(NC(=O)NC2C(=O)Nc3ccccc3N(C(C)C)C2=O)cc1 (stereo not drawn) [Compound 7, 1-(1-isopropyl-2,4-dioxo-2,3,4,5-tetrahydro-1H-benzo[b][1,4]diazepin-3-yl)-3-(p-tolyl)urea] | 1.8 | <0.4 | 2.0 and 0.8 and 3.3 and 2.1 | 86 and 58 and 83 and 89 | 4.9 and 5.0 | 25 and 30 and 20 and -11 | – | 6.2 | – | 20 | > 50.1 | 12.6 | > 50.1 | 4.2 | 25 (≈ 9.16 µg/mL) | – |
| Cc1ccc(NC(=O)NC2C(=O)Nc3ccccc3N(C3CCOCC3)C2=O)cc1 (stereo not drawn) [Compound 8, 1-(2,4-dioxo-1-(tetrahydro-2H-pyran-4-yl)-2,3,4,5-tetrahydro-1H-benzo[b][1,4]diazepin-3-yl)-3-(p-tolyl)urea] | 0.7 | <0.4 | 2.6 and 1.3 and 1.9 | 78 and 81 | 4.9 and 4.8 | 17 and 36 and -0.637 and 18 | – | 5.5 | 73 | 10 | > 50.1 | 12.6 | > 50.1 | 3.5 | 380 (≈ 155 µg/mL) | – |
| Cc1ccc(NC(=O)NC2CN(c3ccccc3)c3ccccc3NC2=O)cc1 (stereo not drawn) [Compound 10, 1-(4-oxo-1-phenyl-2,3,4,5-tetrahydro-1H-benzo[b][1,4]diazepin-3-yl)-3-(p-tolyl)urea] | 3.5 | <0.4 | 3.5 and 12.0 and 3.2 and 0.8 | 83 and 85 | 5.0 and 4.9 and 5.3 | 96 and 91 and 95 and 63 | 4.7 and 5.2 and 4.6 and 5.3 | 8.7 | 86 | – | – | 7.94 | 12.6 | 5.7 | 23 (≈ 8.89 µg/mL) | Hill Slope (Vero) ([5]; individual replicate): 3.6 and 42.2 and 4.8 and 14.3 |
| Cc1ccc(NC(=O)NC2CNc3ccccc3N(c3ccccc3)C2=O)cc1 (stereo not drawn) [Compound 11, 1-(2-oxo-1-phenyl-2,3,4,5-tetrahydro-1H-benzo[b][1,4]diazepin-3-yl)-3-(p-tolyl)urea] | 4.0 | <0.4 | 1.3 and 2.0 and 1.7 and 2.2 | 77 and 75 and 73 | 4.7 | 20 and 21 and 9 and 10 | – | 8.4 | 67 | 25.1 | > 50.1 | 25.1 | > 50.1 | 5.4 | < 1 | – |
